According to ChEMBL document CHEMBL1201862, “PubChem BioAssay data set” (2004):
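Protocol summary: plate cells (96-well), add compound at 5 concentrations, incubate 48 h, interpolate endpoints linearly. GI50 = concentration required for 50% inhibition of growth.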 Active and inactive are the calls of the source. Rule as the data show it: active = GI50 up to about 1.1 µM and inactive = higher.

How the values were obtained:
Assay in all cases: inhibition of tumour cell growth, NCI panel, 48 h
[1] = system: SK-OV-3
[2] = system: SNB-19
[3] = system: HT-29
[4] = system: MOLT-4
[5] = system: IGROV-1
[6] = system: HCT-15
[7] = system: DLD-1
[8] = system: HOP-62
[9] = system: SNB-78
[10] = system: SR
[11] = system: M19-MEL
[12] = system: RXF 631
[13] = system: OVCAR-5
[14] = system: HOP-92
[15] = system: DMS-273
[16] = system: NCI-H226
[17] = system: SK-MEL-28
[18] = system: SNB-75
[19] = system: UACC-62
[20] = system: RPMI-8226
[21] = system: M14
[22] = system: HCC 2998
[23] = system: SF-539
[24] = system: SN12C
[25] = system: NCI-H23
[26] = system: KM-20L2
[27] = system: KM12
[28] = system: ACHN
[29] = system: Malme-3M
[30] = system: DMS-114
[31] = system: UACC-257
[32] = system: UO-31
[33] = system: COLO 205
[34] = system: TK-10
[35] = system: SF-295
[36] = system: HCT-116
[37] = system: LOX IMVI
[38] = system: U-251
[39] = system: SW-620
[40] = system: OVCAR-8
[41] = system: OVCAR-4
[42] = system: SF-268
[43] = system: CAKI-1
[44] = system: A498
[45] = system: LXFL 529
[46] = system: EKVX
[47] = system: NCI-H460
[48] = system: A549
[49] = system: SK-MEL-5
[50] = system: XF498
[51] = system: OVCAR-3

For `Cc1ccccc1NC(=O)CC(=O)N1N=C(N2c3ccccc3Sc3ccccc32)CC1c1ccccc1` (stereo unspecified), the GI50 [1] was > 100 µM (inactive), the GI50 [2] was > 100 µM (inactive) and the GI50 [3] was > 100 µM (inactive). The GI50 [4] was > 100 µM (inactive), the GI50 [5] was > 100 µM (inactive) and the GI50 [6] was greater than 100 µM. The GI50 [7] was > 100 µM (inactive), the GI50 [8] was > 100 µM (inactive) and the GI50 [9] was > 100 µM (inactive). For the same compound, the GI50 [10] was > 100 µM (inactive), the GI50 [11] was > 100 µM (inactive) and the GI50 [12] was > 100 µM (inactive). For the same compound, the GI50 [13] was > 100 µM (inactive), the GI50 [14] was > 100 µM (inactive) and the GI50 [15] was > 100 µM (inactive). The GI50 [16] was > 100 µM (inactive), the GI50 [17] was > 100 µM (inactive) and the GI50 [18] was > 100 µM (inactive). The GI50 [19] was > 100 µM (inactive), the GI50 [20] was > 100 µM (inactive) and the GI50 [21] was > 100 µM (inactive). For the same compound, the GI50 [22] was > 100 µM (inactive), the GI50 [23] was > 100 µM (inactive) and the GI50 [24] was > 100 µM (inactive). The GI50 [25] was > 100 µM (inactive), the GI50 [26] was > 100 µM (inactive) and the GI50 [27] was > 100 µM (inactive). The GI50 [28] was > 100 µM (inactive), the GI50 [29] was > 100 µM (inactive) and the GI50 [30] was > 100 µM (inactive). The GI50 [31] was > 100 µM (inactive), the GI50 [32] was > 100 µM (inactive) and the GI50 [33] was > 100 µM (inactive). For the same compound, the GI50 [34] was > 100 µM (inactive), the GI50 [35] was > 100 µM (inactive) and the GI50 [36] was > 100 µM (inactive). The GI50 [37] was > 100 µM (inactive), the GI50 [38] was > 100 µM (inactive) and the GI50 [39] was > 100 µM (inactive). For the same compound, the GI50 [40] was > 100 µM (inactive), the GI50 [41] was > 100 µM (inactive) and the GI50 [42] was > 100 µM (inactive). The GI50 [43] was > 100 µM (inactive), the GI50 [44] was > 100 µM (inactive) and the GI50 [45] was > 100 µM (inactive). The GI50 [46] was > 100 µM (inactive), the GI50 [47] was > 100 µM (inactive) and the GI50 [48] was > 100 µM (inactive). The GI50 [49] was > 100 µM (inactive), the GI50 [50] was > 100 µM (inactive) and the GI50 [51] was > 100 µM (inactive).
